Experimental data: patent US20260206761A1, “HETEROARYL-TRIAZOLE COMPOUNDS AS PESTICIDES” (Bayer Aktiengesellschaft, priority 2019, published 2026)

Tests used:
Assay type in all cases: in vivo
[1] = test system: Anopheles funestus strain FUMOZ-R; experiment: Anopheles funestus test (ANPHFU surface treatment & contact assay); settings: 24 hours after contact, read-out: efficacy (mortality); for mortality at 4 mg/m2: surface concentration 4 mg/m^2, exposure 30 minutes; for mortality at 20 mg/m2: surface concentration 20 mg/m^2, exposure 30 minutes
In short: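 Compound dissolved in acetone at 2 mg/ml with 2000 ppm RME, pipetted onto glazed tile; acetone evaporated. Adult FUMOZ-R mosquitoes exposed to dried surface for 30 min. Percent mortality scored 24 h after contact.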

[2] = test system: green peach aphid (Myzus persicae); experiment: Myzus persicae oral test; settings: 120 h, application rate 4 ppm, after 5 days
In short: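 Readout: % mortality at day 5, where 100% = all aphids dead and 0% = none dead. Feeding via parafilm membrane over compound in IPL41 medium (33%+15% sugar); mixed-age population. Stock in acetone (1:100 w/w), water-diluted.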

[3] = test system: Culex quinquefasciatus strain P00; experiment: Culex quinquefasciatus test (CULXFA surface treatment & contact assay); settings: 24 hours after contact, read-out: efficacy (mortality); for mortality at 4 mg/m2: surface concentration 4 mg/m^2, exposure 30 minutes; for mortality at 20 mg/m2: surface concentration 20 mg/m^2, exposure 30 minutes
In short: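 Compound in acetone (2 mg/ml) with 2000 ppm rapeseed oil methyl ester, dried onto glazed tile. Adult mosquitoes exposed to the treated surface for 30 min. Percent mortality scored 24 h after contact.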

[4] = test system: Rhipicephalus microplus larvae (strain Parkhurst, resistant against synthetic pyrethroids); experiment: Rhipicephalus (Boophilus) microplus in-vitro contact test, larval cattle tick; settings: after 48 hours, read-out: activity (efficacy: larvae dead or moribund); for pest or weed control at 100 g/ha: application rate 1 pg/cm^2 (=100 g/ha); for pest or weed control at 500 g/ha: application rate 5 pg/cm^2 (=500 g/ha)
In short: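 Larvae (20-50 per tube) exposed to dry compound film on glass tube walls, 5 μg/cm^2 at 900 ppm, applied from acetone. After 48 h at 27° C./85% RH, tubes tapped and negative geotaxis scored; efficacy as percent dead or moribund larvae.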

[5] = test system: green peach aphid (Myzus persicae); experiment: Myzus persicae spray test; settings: 120 h, after 5 days; for mortality at 100 g/ha: application rate 100 g/ha; for mortality at 500 g/ha: application rate 500 g/ha
In short: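 Chinese cabbage leaf disks carrying all instars of M. persicae sprayed with compound in acetone/DMF, diluted in water with 1000 ppm alkylarylpolyglycol ether emulsifier. Percent mortality scored after 5 days (100% = all aphids killed).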

[6] = test system: adult brown dog ticks (Rhipicephalus sanguineus); experiment: Rhipicephalus sanguineus in-vitro contact test, adult brown dog ticks; settings: after 48 hours, read-out: activity (efficacy: ticks dead or moribund); for pest or weed control at 100 g/ha: application rate 1 pg/cm^2 (=100 g/ha); for pest or weed control at 5 µg/cm2, 500 g/ha: application rate 5 μg/cm^2 (=500 g/ha)
In short: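 Glass tubes are coated with compound dissolved in acetone, a 900 ppm solution yielding 5 μg/cm^2 on the inner surface. Adult ticks (5-10 per tube) are kept on the dry film at room temperature for 48 h, then those unable to escape 45-50° C heat are counted as dead or moribund.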

[7] = test system: larvae of the southern green stink bug (Nezara viridula); experiment: Nezara viridula spray test; settings: 96 h, after 4 days; for mortality at 100 g/ha: application rate 100 g/ha; for mortality at 500 g/ha: application rate 500 g/ha
In short: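 Larva-infested barley (Hordeum vulgare) plants received a spray of test solution prepared from an acetone/DMF concentrate diluted in emulsifier-containing water (1000 ppm). Percent kill read 4 days later; 0% means no stink bugs dead.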

[8] = test system: cattle ticks (Rhipicephalus microplus) strain Parkhurst, SP-resistant; experiment: Rhipicephalus (Boophilus) microplus dip test; settings: 168 h, application rate 100 ppm, egg deposition after 7 days, read-out: activity (efficacy: infertile eggs)
Experimental: Rhipicephalus (Boophilus) microplus—Din Test
Test animal: cattle ticks (Rhipicephalus microplus) strain Parkhurst, SP-resistant
Solvent: dimethyl sulfoxide
To produce a suitable preparation of active compound, 10 mg of active compound are dissolved in 0.5 mL solvent, and the concentrate is diluted with water to the desired concentration.
This compound solution is pipetted into tubes. 8-10 engorged, adult, female cattle ticks (Rhipicephalus microplus) are placed in perforated tubes. These tubes are immersed in the aqueous compound solution until the ticks are completely moistened. After the liquid has drained off, the ticks are transferred to a filter paper in a plastic tray and stored in a climate chamber.
After 7 days egg deposition of fertile eggs is monitored. Eggs where fertility is not visible are stored in a climate chamber till hatching after about 42 days. An efficacy of 100% means all eggs are infertile; 0% means all eggs are fertile.

## C[C@H](NC(=O)c1cc(Cl)cc(S(=O)(=O)C(F)F)c1)c1ncnn1-c1ncccn1 [II-34]
[1]
  mortality at 4 mg/m2: 80 to 100%
  mortality at 20 mg/m2: 80 to 100%
[2]
  mortality at 4 ppm: 100%
[3]
  mortality at 4 mg/m2: 80 to 100%
  mortality at 20 mg/m2: 80 to 100%
[4]
  pest or weed control at 100 g/ha: 100%
  pest or weed control at 500 g/ha: 90%
[5]
  mortality at 100 g/ha: 100%
  mortality at 500 g/ha: 100%
[6]
  pest or weed control at 100 g/ha: 100%
  pest or weed control at 5 µg/cm2, 500 g/ha: 100%
[7]
  mortality at 100 g/ha: 100%
  mortality at 500 g/ha: 100%

## C[C@H](NC(=O)c1cc(Cl)cc(S(C)(=O)=O)c1)c1ncnn1-c1ncc(OC(F)F)cn1 [II-42]
[1]
  mortality at 4 mg/m2: 80 to 100%
  mortality at 20 mg/m2: 80 to 100%
[2]
  mortality at 4 ppm: 100%
[3]
  mortality at 4 mg/m2: 80 to 100%
  mortality at 20 mg/m2: 80 to 100%
[4]
  pest or weed control at 100 g/ha: 100%
  pest or weed control at 500 g/ha: 100%
[5]
  mortality at 100 g/ha: 90%
[8]
  pest or weed control at 100 ppm: 100%
[6]
  pest or weed control at 100 g/ha: 100%
  pest or weed control at 5 µg/cm2, 500 g/ha: 100%
[7]
  mortality at 100 g/ha: 100%

## C[C@H](NC(=O)c1cc(C(F)(F)F)cc(C2(C#N)CC2)c1)c1ncnn1-c1ccc(Cl)cn1 [II-48]
[1]
  mortality at 4 mg/m2: 80 to 100%
  mortality at 20 mg/m2: 80 to 100%
[2]
  mortality at 4 ppm: 100%
[4]
  pest or weed control at 100 g/ha: 100%
  pest or weed control at 500 g/ha: 100%
[5]
  mortality at 100 g/ha: 100%
[8]
  pest or weed control at 100 ppm: 100%
[6]
  pest or weed control at 100 g/ha: 100%
  pest or weed control at 5 µg/cm2, 500 g/ha: 100%
[7]
  mortality at 100 g/ha: 100%

## C[C@H](NC(=O)c1cc(C#N)cc([S+](C)[O-])c1)c1ncnn1-c1ccc(C#N)cn1 (stereo partly drawn) [II-12]
[1]
  mortality at 4 mg/m2: 80 to 100%
  mortality at 20 mg/m2: 80 to 100%
[2]
  mortality at 4 ppm: 100%
[3]
  mortality at 4 mg/m2: 80 to 100%
  mortality at 20 mg/m2: 80 to 100%
[4]
  pest or weed control at 100 g/ha: 80%
  pest or weed control at 500 g/ha: 100%
[5]
  mortality at 100 g/ha: 90%
  mortality at 500 g/ha: 90%
[7]
  mortality at 100 g/ha: 100%
  mortality at 500 g/ha: 100%

## Cc1nc([C@H](C)NC(=O)c2cc(OC(F)(F)F)cc(C3CC3)c2)n(-c2ccc(C#N)cn2)n1 [II-39]
[2]
  mortality at 4 ppm: 100%
[3]
  mortality at 20 mg/m2: 80 to 100%
[4]
  pest or weed control at 100 g/ha: 100%
  pest or weed control at 500 g/ha: 100%
[8]
  pest or weed control at 100 ppm: 100%
[6]
  pest or weed control at 100 g/ha: 100%
  pest or weed control at 5 µg/cm2, 500 g/ha: 100%

## C[C@H](NC(=O)c1cc(Cl)cc(S(C)(=O)=O)c1)c1nc(C2CC2)nn1-c1ccc(C#N)cn1 [I-4]
[2]
  mortality at 4 ppm: 100%
[4]
  pest or weed control at 100 g/ha: 90%
[8]
  pest or weed control at 100 ppm: 100%
[7]
  mortality at 100 g/ha: 100%
  mortality at 500 g/ha: 100%

## CSc1cc(C#N)cc(C(=O)N[C@@H](C)c2ncnn2-c2ccc(C#N)cn2)c1 [II-3]
[1]
  mortality at 20 mg/m2: 80 to 100%
[2]
  mortality at 4 ppm: 100%
[3]
  mortality at 4 mg/m2: 80 to 100%
  mortality at 20 mg/m2: 80 to 100%
[4]
  pest or weed control at 100 g/ha: 90%
  pest or weed control at 500 g/ha: 90%
[5]
  mortality at 100 g/ha: 100%
  mortality at 500 g/ha: 100%
[7]
  mortality at 100 g/ha: 100%
  mortality at 500 g/ha: 100%

## C[C@H](NC(=O)c1cc(C(F)(F)F)cc(C2(C#N)CC2)c1)c1ncnn1-c1ccc(C#N)cn1 [II-47]
[1]
  mortality at 4 mg/m2: 80 to 100%
  mortality at 20 mg/m2: 80 to 100%
[2]
  mortality at 4 ppm: 100%
[4]
  pest or weed control at 100 g/ha: 100%
  pest or weed control at 500 g/ha: 100%
[5]
  mortality at 100 g/ha: 100%
[8]
  pest or weed control at 100 ppm: 100%
[6]
  pest or weed control at 100 g/ha: 100%
  pest or weed control at 5 µg/cm2, 500 g/ha: 100%
[7]
  mortality at 100 g/ha: 100%

## Cc1nc([C@H](C)NC(=O)c2cc(C(F)(F)F)cc(C3(C#N)CC3)c2)n(-c2ccc(C#N)cn2)n1 [II-49]
[1]
  mortality at 20 mg/m2: 80 to 100%
[2]
  mortality at 4 ppm: 100%
[4]
  pest or weed control at 100 g/ha: 100%
  pest or weed control at 500 g/ha: 100%
[5]
  mortality at 100 g/ha: 100%
[8]
  pest or weed control at 100 ppm: 100%
[6]
  pest or weed control at 100 g/ha: 100%
  pest or weed control at 5 µg/cm2, 500 g/ha: 100%
[7]
  mortality at 100 g/ha: 100%

## C[C@H](NC(=O)c1cc(C(F)(F)F)cc(S(C)(=O)=O)c1)c1ncnn1-c1ncccn1 [II-13]
[1]
  mortality at 4 mg/m2: 80 to 100%
[2]
  mortality at 4 ppm: 100%
[3]
  mortality at 4 mg/m2: 80 to 100%
[4]
  pest or weed control at 500 g/ha: 80%
[5]
  mortality at 100 g/ha: 90%
  mortality at 500 g/ha: 100%
[8]
  pest or weed control at 100 ppm: 100%
[7]
  mortality at 100 g/ha: 100%
  mortality at 500 g/ha: 100%
